Measurements: ChEMBL document CHEMBL1201862, “PubChem BioAssay data set” (2004)
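Assay format: 96-well plates, 48-hour exposure. Here, GI50 denotes the concentration required for 50% inhibition of growth.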 Activity calls are given as the source filed them. No stated cut-off is given here; in the data, active = GI50 up to about 1.1 µM and inactive = higher.

What was measured:
Assay in all cases: inhibition of tumour cell growth, NCI panel, 48 h
[1] = tested on: HCT-116
[2] = tested on: HOP-62
[3] = tested on: U-251
[4] = tested on: KM12
[5] = tested on: SK-OV-3
[6] = tested on: NCI-H23
[7] = tested on: OVCAR-8
[8] = tested on: 786-0
[9] = tested on: M14
[10] = tested on: ACHN
[11] = tested on: MOLT-4
[12] = tested on: SNB-75
[13] = tested on: UACC-62
[14] = tested on: HT-29
[15] = tested on: Malme-3M
[16] = tested on: NCI-H460

Measured: GI50

O=C(/C=C\c1cccc2ccccc12)c1ccc(F)cc1
inactive: [1] 13.9 µM | [2] 69.8 µM | [3] 15.8 µM | [4] 15 µM | [5] 23.5 µM | [6] 20 µM | [7] 14.8 µM | [8] 18.1 µM | [9] 16.2 µM | [10] 17 µM | [11] 16 µM | [12] 30.5 µM | [13] 13.9 µM | [14] 17.3 µM | [15] 17.7 µM | [16] 17.8 µM

CC(C)(CN1CCCCC1)C(=O)/C=C/c1ccc(Cl)c(Cl)c1
inactive: [1] 1.65 µM | [2] 1.95 µM | [3] 1.37 µM | [4] 1.71 µM | [5] 2.34 µM | [6] 1.71 µM | [7] > 100 µM | [8] 1.38 µM | [9] 1.7 µM | [10] 1.55 µM | [11] 1.63 µM | [12] 1.48 µM | [13] 1.76 µM | [14] 1.61 µM | [15] 1.83 µM | [16] 1.65 µM

Cc1ccc2[nH]c(Sc3c([N+](=O)[O-])ncn3C)nc2c1
inactive: [1] 21.1 µM | [2] > 100 µM | [3] 22.9 µM | [4] 67 µM | [5] 30 µM | [6] 18.6 µM | [7] 14.4 µM | [8] 27.8 µM | [9] 17.6 µM | [10] 33 µM | [11] 13.9 µM | [12] 25.3 µM | [13] 19 µM | [14] 29.6 µM | [15] 15.8 µM | [16] 35.2 µM

CCOC(=O)C(=O)/C=C(\C)Nc1c(NC2OCC(OC(C)=O)C(OC(C)=O)C2OC(C)=O)nc(SC)[nH]c1=O (configuration not stated)
inactive: [1] > 100 µM | [2] > 100 µM | [3] > 100 µM | [4] > 100 µM | [5] > 100 µM | [6] > 100 µM | [7] > 100 µM | [8] > 100 µM | [9] > 100 µM | [10] > 100 µM | [11] > 100 µM | [12] > 100 µM | [13] > 100 µM | [14] > 100 µM | [15] > 100 µM | [16] > 100 µM

CCc1cccc(C)c1N1C(=O)C(=O)C(c2nc3ccccc3o2)C(=O)C1=O
inactive: [1] > 100 µM | [2] > 100 µM | [3] > 100 µM | [4] > 100 µM | [5] > 100 µM | [6] > 100 µM | [7] > 100 µM | [8] > 100 µM | [9] > 100 µM | [10] > 100 µM | [11] > 100 µM | [12] 45.7 µM | [13] > 100 µM | [14] > 100 µM | [15] > 100 µM | [16] > 100 µM

O=C(O)CCN(CCCN(CCC(=O)O)CCC(=O)O)CCC(=O)O
inactive: [1] > 100 µM | [2] > 100 µM | [3] > 100 µM | [4] > 100 µM | [5] > 100 µM | [6] > 100 µM | [7] > 100 µM | [8] > 100 µM | [9] > 100 µM | [10] > 100 µM | [11] > 100 µM | [12] 74.8 µM | [13] > 100 µM | [14] > 100 µM | [15] > 100 µM | [16] > 100 µM

COC(=O)C(=O)C1(CCC(C)=O)c2ccccc2-c2c(C)ccc(C)c21 (configuration not stated)
inactive: [1] 35.7 µM | [2] 53 µM | [3] 41.8 µM | [4] 43 µM | [5] 84.1 µM | [6] 24.7 µM | [7] 34.4 µM | [8] 64 µM | [9] 46.8 µM | [10] 46.7 µM | [11] 23.1 µM | [12] 53 µM | [13] 7.53 µM | [14] 32.7 µM | [15] 40.4 µM | [16] 33 µM
